In patent US6689773B2, “Uracil substituted phenyl sulfamoyl carboxamides” (BASF Aktiengesellschaft, priority 2000, dated 2004):

Key:
Type in all cases: in vivo
[1] = tested on: Amaranthus retroflexus (AMARE), Redroot pigweed; assay: Greenhouse post-emergence herbicidal action (Example 149); settings: 15.6 or 7.8 g/ha of a.i.
Method: (§1) The culture containers used were plastic flowerpots containing loamy sand with approximately 3.0% of humus as substrate. The seeds of the test plants were sown separately for each species.
(§2) For the post-emergence treatment, the test plants were grown to a plant height of from 3 to 15 cm, depending on the plant habit, and only then treated with the active ingredients which had been suspended or emulsified in water. To this end, the test plants were either sown directly and grown in the same containers, or they were first grown separately as seedlings and transplanted into the test containers a few days prior to treatment. The rate of application for the post-emergence treatment was 15.6 or 7.8 g/ha active ingredient.
(§3) Depending on the species, the plants were kept at from 10-25° C. and 20-35° C., respectively. The test period extended over 2 to 4 weeks. During this time, the plants were tended, and their response to the individual treatments was evaluated.
(§4) Evaluation was carried out using a scale of from 0 to 100. 100 means no emergence of the plants, or complete destruction of at least the aerial parts, and 0 means no damage or normal course of growth.
(§5) The plants used in the greenhouse experiments belonged to the following species: […]

[2] = tested on: Pharbitis purpurea (PHBPU), common or tall morningglory; assay: as above; settings: 15.6 or 7.8 g/ha of a.i.
Method: as §1, §2, §3, §4, §5

[3] = tested on: Polygonum persicaria (POLPE), redshank; ladysthumb; assay: as above; settings: 15.6 or 7.8 g/ha of a.i.
Method: as §1, §2, §3, §4, §5

[4] = tested on: ABUTH, Velvetleaf, Abutilon theophrasti, Medic.; assay: Postemergence herbicidal evaluation (Example 147); settings: rating scale 0-9, two to three weeks after treatment
In short: (§6)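 Compound is applied postemergence at approximately 0.016–0.032 kg/ha through a nozzle at 40 psi, using 80/20 acetone/water with 1.0% SUN-IT II. Treated seedlings, grown about two weeks beforehand, stay in the greenhouse for two to three weeks before visual 0-9 scoring.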

[5] = tested on: ALOMY, Blackgrass, Alopecurus myosuroides; assay: Postemergence herbicidal evaluation (Example 147); settings: rating scale 0-9, two to three weeks after treatment
In short: as §6

[6] = tested on: AMBEL, Ragweed, Common, Ambrosia artemiisifolia, L.; assay: Postemergence herbicidal evaluation (Example 147); settings: rating scale 0-9, two to three weeks after treatment
In short: as §6

[7] = tested on: CHEAL, Lambsquarters, Chenopodium album, L. Common; assay: Postemergence herbicidal evaluation (Example 147); settings: rating scale 0-9, two to three weeks after treatment
In short: as §6

[8] = tested on: DIGSA, Crabgrass, (Hairy) L, Digitaria sanguinalis, (L)Scop; assay: Postemergence herbicidal evaluation (Example 147); settings: rating scale 0-9, two to three weeks after treatment
In short: as §6

[9] = tested on: ECHCG, Barnyardgrass, Echinochloa crusgalli, (L.)Beau; assay: Postemergence herbicidal evaluation (Example 147); settings: rating scale 0-9, two to three weeks after treatment
In short: as §6

[10] = tested on: GLXMA, Soybean, Glycine max, (L.) Merr.; assay: Postemergence herbicidal evaluation (Example 147); settings: rating scale 0-9, two to three weeks after treatment
In short: as §6

[11] = tested on: IPOHE, Morningglory, Ivyleaf, Ipomoea hederacea, (L)Jacq.; assay: Postemergence herbicidal evaluation (Example 147); settings: rating scale 0-9, two to three weeks after treatment
In short: as §6

[12] = tested on: SETVI, Green foxtail, Setaria viridis, (L.)Beau; assay: Postemergence herbicidal evaluation (Example 147); settings: rating scale 0-9, two to three weeks after treatment
In short: as §6

[13] = tested on: TRZAW, Winter wheat, Tritium Aestivum, L. (Winter); assay: Postemergence herbicidal evaluation (Example 147); settings: rating scale 0-9, two to three weeks after treatment
In short: as §6

[14] = tested on: XANST, Cocklebur, Xanthium strumariam; assay: Postemergence herbicidal evaluation (Example 147); settings: rating scale 0-9, two to three weeks after treatment
In short: as §6

[15] = tested on: ZEAMX, Field corn, Zea mays L.; assay: Postemergence herbicidal evaluation (Example 147); settings: rating scale 0-9, two to three weeks after treatment
In short: as §6

[16] = tested on: ABUTH, Velvetleaf, Abutilon theophrasti, Medic.; assay: Preemergence herbicidal evaluation (Example 148); settings: rating scale 0-9, two to four weeks after treatment
In short: (§7)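 Sow seed–soil mix onto ~1 in soil; spray aqueous acetone compound solution (~0.125–0.250 kg/ha equivalent); keep on greenhouse benches under standard watering; score injury visually after 2–4 weeks.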

[17] = tested on: ALOMY, Blackgrass, Alopecurus myosuroides; assay: Preemergence herbicidal evaluation (Example 148); settings: rating scale 0-9, two to four weeks after treatment
In short: as §7

[18] = tested on: AMBEL, Ragweed, Common, Ambrosia artemiisifolia, L.; assay: Preemergence herbicidal evaluation (Example 148); settings: rating scale 0-9, two to four weeks after treatment
In short: as §7

[19] = tested on: CHEAL, Lambsquarters, Chenopodium album, L. Common; assay: Preemergence herbicidal evaluation (Example 148); settings: rating scale 0-9, two to four weeks after treatment
In short: as §7

[20] = tested on: DIGSA, Crabgrass, (Hairy) L, Digitaria sanguinalis, (L)Scop; assay: Preemergence herbicidal evaluation (Example 148); settings: rating scale 0-9, two to four weeks after treatment
In short: as §7

[21] = tested on: ECHCG, Barnyardgrass, Echinochloa crusgalli, (L.)Beau; assay: Preemergence herbicidal evaluation (Example 148); settings: rating scale 0-9, two to four weeks after treatment
In short: as §7

[22] = tested on: GLXMA, Soybean, Glycine max, (L.) Merr.; assay: Preemergence herbicidal evaluation (Example 148); settings: rating scale 0-9, two to four weeks after treatment
In short: as §7

[23] = tested on: IPOHE, Morningglory, Ivyleaf, Ipomoea hederacea, (L)Jacq.; assay: Preemergence herbicidal evaluation (Example 148); settings: rating scale 0-9, two to four weeks after treatment
In short: as §7

[24] = tested on: SETVI, Green foxtail, Setaria viridis, (L.)Beau; assay: Preemergence herbicidal evaluation (Example 148); settings: rating scale 0-9, two to four weeks after treatment
In short: as §7

[25] = tested on: TRZAW, Winter wheat, Tritium Aestivum, L. (Winter); assay: Preemergence herbicidal evaluation (Example 148); settings: rating scale 0-9, two to four weeks after treatment
In short: as §7

[26] = tested on: XANST, Cocklebur, Xanthium strumariam; assay: Preemergence herbicidal evaluation (Example 148); settings: rating scale 0-9, two to four weeks after treatment
In short: as §7

[27] = tested on: ZEAMX, Field corn, Zea mays L.; assay: Preemergence herbicidal evaluation (Example 148); settings: rating scale 0-9, two to four weeks after treatment
In short: as §7

CC(C)N(C)S(=O)(=O)NC(=O)c1cc(-c2nn(C)c(OC(F)F)c2Cl)c(F)cc1Cl [Ip.86, 4-Chloro-3-[4-chloro-2-fluoro-5-(N-methyl-N-isopropyl)-sulfamoylcarboxamidophenyl]-5-difluoromethoxy-1-methyl-1H-pyrazole]
herbicidal action [1]: very good herbicial action | herbicidal action [2]: very good herbicial action | herbicidal action [3]: very good herbicial action

Cn1c(C(F)(F)F)cc(=O)n(-c2cc(C(=O)NS(N)(=O)=O)c(Cl)cc2F)c1=O [Example 58]
Postemergence herbicidal rating ABUTH ([4]; rate 0.016 kg/ha): 9.0 | Postemergence herbicidal rating ABUTH ([4]; rate 0.032 kg/ha): 9.0 | Postemergence herbicidal rating ALMOY ([5]; rate 0.016 kg/ha): 3.0 | Postemergence herbicidal rating ALMOY ([5]; rate 0.032 kg/ha): 3.0 | Postemergence herbicidal rating AMBEL ([6]; rate 0.016 kg/ha): 9.0 | Postemergence herbicidal rating AMBEL ([6]; rate 0.032 kg/ha): 9.0 | Postemergence herbicidal rating CHEAL ([7]; rate 0.016 kg/ha): 8.0 | Postemergence herbicidal rating CHEAL ([7]; rate 0.032 kg/ha): 9.0 | Postemergence herbicidal rating DIGSA ([8]; rate 0.016 kg/ha): 5.0 | Postemergence herbicidal rating DIGSA ([8]; rate 0.032 kg/ha): 6.0 | Postemergence herbicidal rating ECHCG ([9]; rate 0.016 kg/ha): 6.0 | Postemergence herbicidal rating ECHCG ([9]; rate 0.032 kg/ha): 7.0 | Postemergence herbicidal rating GLXMA ([10]; rate 0.016 kg/ha): 8.5 | Postemergence herbicidal rating GLXMA ([10]; rate 0.032 kg/ha): 8.5 | Postemergence herbicidal rating IPOHE ([11]; rate 0.016 kg/ha): 9.0 | Postemergence herbicidal rating IPOHE ([11]; rate 0.032 kg/ha): 9.0 | Postemergence herbicidal rating SETVI ([12]; rate 0.016 kg/ha): 8.0 | Postemergence herbicidal rating SETVI ([12]; rate 0.032 kg/ha): 8.0 | Postemergence herbicidal rating TRZAW ([13]; rate 0.016 kg/ha): 4.5 | Postemergence herbicidal rating TRZAW ([13]; rate 0.032 kg/ha): 5.0 | Postemergence herbicidal rating XANST ([14]; rate 0.016 kg/ha): 9.0 | Postemergence herbicidal rating XANST ([14]; rate 0.032 kg/ha): 9.0 | Postemergence herbicidal rating ZEAMX ([15]; rate 0.016 kg/ha): 8.0 | Postemergence herbicidal rating ZEAMX ([15]; rate 0.032 kg/ha): 8.0 | Preemergence herbicidal rating ABUTH ([16]; rate 0.125 kg/ha): 9.0 | Preemergence herbicidal rating ABUTH ([16]; rate 0.25 kg/ha): 9.0 | Preemergence herbicidal rating ALMOY ([17]; rate 0.125 kg/ha): 0.0 | Preemergence herbicidal rating ALMOY ([17]; rate 0.25 kg/ha): 0.0 | Preemergence herbicidal rating AMBEL ([18]; rate 0.125 kg/ha): 9.0 | Preemergence herbicidal rating AMBEL ([18]; rate 0.25 kg/ha): 9.0 | Preemergence herbicidal rating CHEAL ([19]; rate 0.125 kg/ha): 9.0 | Preemergence herbicidal rating CHEAL ([19]; rate 0.25 kg/ha): 9.0 | Preemergence herbicidal rating DIGSA ([20]; rate 0.125 kg/ha): 0.0 | Preemergence herbicidal rating DIGSA ([20]; rate 0.25 kg/ha): 3.0 | Preemergence herbicidal rating ECHCG ([21]; rate 0.125 kg/ha): 4.0 | Preemergence herbicidal rating ECHCG ([21]; rate 0.25 kg/ha): 6.0 | Preemergence herbicidal rating GLXMA ([22]; rate 0.125 kg/ha): 9.0 | Preemergence herbicidal rating GLXMA ([22]; rate 0.25 kg/ha): 9.0 | Preemergence herbicidal rating IPOHE ([23]; rate 0.125 kg/ha): 9.0 | Preemergence herbicidal rating IPOHE ([23]; rate 0.25 kg/ha): 9.0 | Preemergence herbicidal rating SETVI ([24]; rate 0.125 kg/ha): 2.0 | Preemergence herbicidal rating SETVI ([24]; rate 0.25 kg/ha): 6.0 | Preemergence herbicidal rating TRZAW ([25]; rate 0.125 kg/ha): 0.0 | Preemergence herbicidal rating TRZAW ([25]; rate 0.25 kg/ha): 3.0 | Preemergence herbicidal rating XANST ([26]; rate 0.125 kg/ha): 5.0 | Preemergence herbicidal rating XANST ([26]; rate 0.25 kg/ha): 8.0 | Preemergence herbicidal rating ZEAMX ([27]; rate 0.125 kg/ha): 0.0 | Preemergence herbicidal rating ZEAMX ([27]; rate 0.25 kg/ha): 1.0
